Results taken from US8772323B2, “Benzoxazole- and tetrahydrobenzoxazole-substituted pyridazinones as GPR119 agonists” (Boehringer Ingelheim International GmbH, priority 2010, dated 2014).

Target: human GPR119 (Homo sapiens (Human), UniProt Q8TDV5)
Experiment: AlphaScreen cAMP assay in Min-6/hGPR119 cells (GPR119 activation, intracellular cAMP)
Format: cell-based
Details: MIN6 cells stably transfected with human GPR119; 45 minutes' incubation at RT; AlphaScreen cAMP Assay Kit
How it was run: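 MIN6 cells stably expressing human GPR119 plated 10000 cells/well and held 24 h at 37° C. Compounds applied in stimulating buffer, pH 7.4, with 0.5 mM IBMX, 0.1% BSA, 1% DMSO final, for 45 min at RT. Intracellular cAMP read by AlphaScreen.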

Sequence of human GPR119 (Q8TDV5 whole entry): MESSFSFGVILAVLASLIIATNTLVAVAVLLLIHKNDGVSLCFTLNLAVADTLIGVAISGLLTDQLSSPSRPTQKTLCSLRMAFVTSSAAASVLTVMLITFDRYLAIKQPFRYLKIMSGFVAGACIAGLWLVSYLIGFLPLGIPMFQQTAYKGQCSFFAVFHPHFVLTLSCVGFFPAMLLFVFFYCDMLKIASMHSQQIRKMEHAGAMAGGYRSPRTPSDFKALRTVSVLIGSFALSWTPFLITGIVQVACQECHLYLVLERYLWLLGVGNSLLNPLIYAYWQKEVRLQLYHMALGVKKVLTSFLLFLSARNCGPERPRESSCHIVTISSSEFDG

SMILES | EC50
CCC1SC(=O)NN=C1c1ccc2nc(-c3ccccc3)oc2c1 (stereo not shown) [Example 77, 6-ethyl-5-(2-phenyl-benzoxazol-6-yl)-3,6-dihydro-[1,3,4]thiadiazin-2-one] | 141 nM
CC[C@H]1CC(=O)NN=C1c1ccc2nc(-c3ccc(OCC(C)N4CCCCC4)cc3)oc2c1 (stereo partly drawn) [Example 236, 5(S)-ethyl-6-{2-[4-(2-piperidin-1-yl-propoxy)-phenyl]-benzoxazol-6-yl}-4,5-dihydro-2H-pyridazin-3-one] | 1100 nM
CCC1CC(=O)NN=C1c1ccc2nc(-c3ccc(OC[C@@H]4CCCN4C)cc3)oc2c1 (stereo partly shown) [Example 242, 5-ethyl-6-{2-[4-(1-methyl-S-pyrrolidin-2-yl-methoxy)-phenyl]-benzoxazol-6-yl}-4,5-dihydro-2H-pyridazin-3-one] | 296 nM
CC[C@@H]1OC(=O)NN=C1N1CCc2nc(-c3ccccc3)oc2C1 [Example 207, (S)-6-ethyl-5-(2-phenyl-6,7-dihydro-4H-oxazolo[5,4-c]pyridin-5-yl)-3,6-dihydro-[1.3.4]oxadiazin-2-one] | 578 nM
CCC1CC(=O)NN=C1c1ccc2nc(-c3ccc(OC[C@@H]4CCCN4C(=O)OC(C)(C)C)cc3)oc2c1 (stereo partly shown) [Example 226] | 47 nM
CC1CC(=O)NN=C1c1ccc2nc(-c3ccccc3Cl)oc2c1 (stereo not shown) [Example 89, 6-[2-(2-chloro-phenyl)-benzoxazol-6-yl]-5-methyl-4,5-dihydro-2H-pyridazin-3-one] | 415 nM
Cc1ccc(-c2nc3ccc(C4=NNC(=O)C5CC45)cc3o2)cc1C (stereo not shown) [Example 14, 5-[2-(3,4-dimethyl-phenyl)-benzoxazol-6-yl]-3,4-diaza-bicyclo[4.1.0]hept-4-en-2-one] | 264 nM
Cc1ccc(-c2nc3ccc(C4=NNC(=O)C5CC45)cc3o2)cc1 (stereo not shown) [Example 13, 5-(2-p-tolyl-benzoxazol-6-yl)-3,4-diaza-bicyclo[4.1.0]hept-4-en-2-one] | 153 nM
CCC1CC(=O)NN=C1c1ccc2nc(-c3ccc(OCC4CCCCN4C)cc3)oc2c1 (stereo not shown) [Example 233, 5-ethyl-6-{2-[4-(1-methyl-2-piperidin-2-yl-methoxy)-phenyl]-benzoxazol-6-yl}-4,5-dihydro-2H-pyridazin-3-one] | 848 nM
CCC1CC(=O)NN=C1c1ccc2nc(-c3cccc(OCCN4CCCC4)c3)oc2c1 (stereo not shown) [Example 201, 5-ethyl-6-{2-[3-(2-pyrrolidin-1-yl-ethoxy)-phenyl]-benzoxazol-6-yl}-4.5-dihydro-2H-pyridazin-3-one] | 3030 nM
CCC[C@@H]1C(=O)NN=C(c2ccc3nc(-c4ccc(OC)cc4)oc3c2)[C@H]1C (relative stereo) [Example 174, trans-6-[2-(4-methoxy-phenyl)-benzoxazol-6-yl]-5-methyl-4-propyl-4,5-dihydro-2H-pyridazin-3-one] | 92 nM
CC[C@H]1C(c2ccc3nc(-c4ccc(OC(C)C)cc4)oc3c2)=NNC(=O)[C@@H]1C (relative stereo) [Example 178, trans-5-ethyl-6-[2-(4-isopropoxy-phenyl)-benzoxazol-6-yl]-4-methyl-4,5-dihydro-2H-pyridazin-3-one] | 108 nM
CCC1CC(=O)NN=C1c1ccc2nc(-c3ccc(OCC(=O)N4CCCCC4)cc3)oc2c1 (stereo not shown) [Example 61, 5-ethyl-6-{2-[4-(2-oxo-2-piperidin-1-yl-ethoxy)-phenyl]-benzoxazol-6-yl}-4,5-dihydro-2H-pyridazin-3-one] | 342 nM
CCC1CC(=O)NN=C1c1ccc2nc(-c3cccc(O)c3)oc2c1 (stereo not shown) [Example 39, 6-[2-(3-hydroxy-phenyl)-benzoxazol-6-yl]-5-ethyl-4,5-dihydro-2H-pyridazin-3-one] | 329 nM
CCC1CC(=O)NN=C1c1ccc2nc(-c3ccc(OC)c(OC)c3)oc2c1 (stereo not shown) [Example 92, 6-[2-(3,4-dimethoxy-phenyl)-benzoxazol-6-yl]-5-ethyl-4,5-dihydro-2H-pyridazin-3-one] | 460 nM
CCC1CC(=O)NN=C1c1ccc2nc(-c3ccc(OCCN4CCC(C#N)CC4)cc3)oc2c1 (stereo not shown) [Example 163, 1-(2-{4-[6-(4-ethyl-6-oxo-1,4,5,6-tetrahydro-pyridazin-3-yl)-benzoxazol-2-yl]-phenoxy}-ethyl)-piperidin-4-carbonitrile] | 97 nM
CCC1CC(=O)NN=C1c1ccc2nc(-c3ccc(OCC4CCN(S(C)(=O)=O)CC4)cc3)oc2c1 (stereo not shown) [Example 74, 5-ethyl-6-{2-[4-(1-methanesulphonyl-piperidin-4-ylmethoxy)-phenyl]-benzoxazol-6-yl}-4,5-dihydro-2H-pyridazin-3-one] | 240 nM
CCC[C@H]1C(=O)NN=C(c2ccc3nc(-c4cccn4C)oc3c2)[C@@H]1C (relative stereo) [Example 252, Trans-5-methyl-6-[2-(1-methyl-1H-pyrrol-2-yl)-benzoxazol-6-yl]-4-propyl-4,5-dihydro-2H-pyridazin-3-one] | 110 nM
CCC1CC(=O)NN=C1c1ccc2nc(-c3ccc(OC4CCOCC4)cc3)oc2c1 (stereo not shown) [Example 105, 5-ethyl-6-{2-[4-(tetrahydro-pyran-4-yloxy)-phenyl]-benzoxazol-6-yl}-4,5-dihydro-2H-pyridazin-3-one] | 80 nM
CC(C)(C)OC(=O)N1CCN(Cc2ccc(-c3nc4ccc(C5=NNC(=O)C6CC56)cc4o3)cc2)CC1 (stereo not shown) [Example 23, tert.butyl 4-{4-[6-(5-oxo-3,4-diaza-bicyclo[4.1.0]hept-2-en-2-yl)-benzoxazol-2-yl]-benzyl}-piperazine-1-carboxylate] | 1350 nM
C=CCOc1ccc(-c2nc3ccc(C4=NNC(=O)CC4CC)cc3o2)cc1 (stereo not shown) [Example 213, 6-[2-(4-allyloxy-phenyl)-benzoxazol-6-yl]-5-ethyl-4,5-dihydro-2H-pyridazin-3-one] | 241 nM
CC1CC(=O)NN=C1c1ccc2nc(-c3ccc(CN)cc3)oc2c1 (stereo not shown) [Example 124, 6-[2-(4-aminomethyl-phenyl)-benzoxazol-6-yl]-5-methyl-4,5-dihydro-2H-pyridazin-3-one] | 8720 nM
Cc1cc(C2=NNC(=O)C3CC23)cc2oc(-c3ccccc3)nc12 (stereo not shown) [Example 11, 5-(4-methyl-2-phenyl-benzoxazol-6-yl)-3,4-diaza-bicyclo[4.1.0]hept-4-en-2-one] | > 10000 nM
O=C1NN=C(c2ccc3nc(-c4ccc(F)cc4)oc3c2)C2CCC12 (stereo not shown) [Example 19, 5-[2-(4-fluoro-phenyl)-benzoxazol-6-yl]-3,4-diaza-bicyclo[4.2.0]oct-4-en-2-one] | 469 nM
CC[C@@H]1CC(=O)NN=C1N1CCc2nc(-c3ccccc3)oc2C1 [Example 202, (5R)-5-ethyl-6-{2-phenyl-4H,5H,6H,7H-pyrido[4.3-d][1.3]oxazol-5-yl}-2,3,4,5-tetrahydropyridazin-3-one] | 133 nM
CCC1CC(=O)NN=C1c1ccc2nc(-c3ccc(OCCCN(C)C)cc3)oc2c1 (stereo not shown) [Example 62, 6-{2-[4-(3-dimethylamino-propoxy)-phenyl]-benzoxazol-6-yl}-5-ethyl-4,5-dihydro-2H-pyridazin-3-one] | 552 nM
CC1CC(=O)NN=C1c1ccc2nc(-c3ccc(C#N)cc3)oc2c1 (stereo not shown) [Example 122, 4-[6-(4-methyl-6-oxo-1,4,5,6-tetrahydro-pyridazin-3-yl)-benzoxazol-2-yl]-benzonitrile] | 4000 nM
O=C1NN=C(c2ccc3nc(Cc4ccccc4)oc3c2)C2CC12 (stereo not shown) [Example 136, 5-(2-benzyl-benzoxazol-6-yl)-3,4-diaza-bicyclo[4.1.0]hept-4-en-2-one] | 2020 nM
